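Growth conditions: 96-well plates. Treatment: test compound, 48 hours, 5 concentrations. Analysis: linear interpolation between bracketing concentrations; unreached endpoints set to highest concentration. The concentration for full growth arrest is given as TGI.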
Assays:
Assay in all cases: DTP human tumour cell line panel, 48 h
SNB-75 CNS = test system: SNB-75 CNS
IGROV1 ovarian = test system: IGROV1 ovarian
OVCAR-4 ovarian = test system: OVCAR-4 ovarian
HCT-116 colon = test system: HCT-116 colon
DMS 273 small cell lung = test system: DMS 273 small cell lung
SN12C renal = test system: SN12C renal
NCI-H522 lung = test system: NCI-H522 lung
SF-539 CNS = test system: SF-539 CNS
SR leukemia = test system: SR leukemia
UACC-257 melanoma = test system: UACC-257 melanoma
LOX IMVI melanoma = test system: LOX IMVI melanoma
SW-620 colon = test system: SW-620 colon
SK-MEL-28 melanoma = test system: SK-MEL-28 melanoma
U251 CNS = test system: U251 CNS
CAKI-1 renal = test system: CAKI-1 renal
HOP-62 NSCLC = test system: HOP-62 NSCLC
SF-295 CNS = test system: SF-295 CNS
UACC-62 melanoma = test system: UACC-62 melanoma
NCI-H23 lung = test system: NCI-H23 lung
KM20L2 colon = test system: KM20L2 colon
CCRF-CEM leukemia = test system: CCRF-CEM leukemia
SNB-19 CNS = test system: SNB-19 CNS
OVCAR-3 ovarian = test system: OVCAR-3 ovarian
UO-31 renal = test system: UO-31 renal
RXF 393 renal = test system: RXF 393 renal
NCI-H460 lung = test system: NCI-H460 lung
SF-268 CNS = test system: SF-268 CNS
HCC-2998 colon = test system: HCC-2998 colon
786-0 renal = test system: 786-0 renal
OVCAR-5 ovarian = test system: OVCAR-5 ovarian
M14 melanoma = test system: M14 melanoma
KM12 colon = test system: KM12 colon
ACHN renal = test system: ACHN renal
A549 NSCLC = test system: A549 NSCLC
HT29 colon = test system: HT29 colon
MOLT-4 leukemia = test system: MOLT-4 leukemia
COLO 205 colon = test system: COLO 205 colon
RXF-631 renal = test system: RXF-631 renal
HCT-15 colon = test system: HCT-15 colon
RPMI-8226 leukemia = test system: RPMI-8226 leukemia
A498 renal = test system: A498 renal
DMS 114 small cell lung = test system: DMS 114 small cell lung
OVCAR-8 ovarian = test system: OVCAR-8 ovarian
DLD-1 colon = test system: DLD-1 colon
SK-MEL-2 melanoma = test system: SK-MEL-2 melanoma
HL-60(TB) leukemia = test system: HL-60(TB) leukemia
LXFL 529 NSCLC = test system: LXFL 529 NSCLC
SNB-78 CNS = test system: SNB-78 CNS
EKVX NSCLC = test system: EKVX NSCLC
NCI-H226 lung = test system: NCI-H226 lung
TK-10 renal = test system: TK-10 renal
K-562 leukemia = test system: K-562 leukemia

Compound: COc1cc(C(=O)N2CCc3c([nH]c4c([N+](=O)[O-])c(OC)ccc34)C2C)cc(OC)c1OC (configuration not stated)
- TGI (SNB-75 CNS): 98.3 µM
- TGI (IGROV1 ovarian): 22.3 µM
- TGI (OVCAR-4 ovarian): > 100 µM
- TGI (HCT-116 colon): > 100 µM
- TGI (DMS 273 small cell lung): > 100 µM
- TGI (SN12C renal): > 100 µM
- TGI (NCI-H522 lung): > 100 µM
- TGI (SF-539 CNS): > 100 µM
- TGI (SR leukemia): > 100 µM
- TGI (UACC-257 melanoma): > 100 µM
- TGI (LOX IMVI melanoma): > 100 µM
- TGI (SW-620 colon): > 100 µM
- TGI (SK-MEL-28 melanoma): > 100 µM
- TGI (U251 CNS): > 100 µM
- TGI (CAKI-1 renal): > 100 µM
- TGI (HOP-62 NSCLC): > 100 µM
- TGI (SF-295 CNS): > 100 µM
- TGI (UACC-62 melanoma): 39.5 µM
- TGI (NCI-H23 lung): > 100 µM
- TGI (KM20L2 colon): > 100 µM
- TGI (CCRF-CEM leukemia): > 100 µM
- TGI (SNB-19 CNS): > 100 µM
- TGI (OVCAR-3 ovarian): > 100 µM
- TGI (UO-31 renal): > 100 µM
- TGI (RXF 393 renal): 91.2 µM
- TGI (NCI-H460 lung): > 100 µM
- TGI (SF-268 CNS): > 100 µM
- TGI (HCC-2998 colon): > 100 µM
- TGI (786-0 renal): > 100 µM
- TGI (OVCAR-5 ovarian): > 100 µM
- TGI (M14 melanoma): > 100 µM
- TGI (KM12 colon): > 100 µM
- TGI (ACHN renal): > 100 µM
- TGI (A549 NSCLC): > 100 µM
- TGI (HT29 colon): > 100 µM
- TGI (MOLT-4 leukemia): > 100 µM
- TGI (COLO 205 colon): > 100 µM
- TGI (RXF-631 renal): > 100 µM
- TGI (HCT-15 colon): > 100 µM
- TGI (RPMI-8226 leukemia): > 100 µM
- TGI (A498 renal): > 100 µM
- TGI (DMS 114 small cell lung): > 100 µM
- TGI (OVCAR-8 ovarian): > 100 µM
- TGI (DLD-1 colon): > 100 µM
- TGI (SK-MEL-2 melanoma): > 100 µM
- TGI (HL-60(TB) leukemia): > 100 µM
- TGI (LXFL 529 NSCLC): > 100 µM
- TGI (SNB-78 CNS): > 100 µM
- TGI (EKVX NSCLC): > 100 µM
- TGI (NCI-H226 lung): > 100 µM
- TGI (TK-10 renal): > 100 µM
- TGI (K-562 leukemia): > 100 µM
